Cn1c(=O)cc(N2CCC[C@@H](N)C2)n(Cc2ccccc2C#N)c1=O.O=C(O)c1ccccc1
solubility (mole fraction)
Conditions	278.15 K	283.15 K	288.15 K	293.15 K	298.15 K	303.15 K	308.15 K	313.15 K	318.15 K
in DMF	0.00568	0.00686	0.00824	0.00984	0.0117	0.0138	0.0162	0.019	0.0222
in acetone	0.00259	0.00293	0.00331	0.00373	0.00419	0.0047	0.00525	0.00587	0.00654
in acetonitrile	0.000102	0.000145	0.000175	0.000228	0.000292	0.000368	0.000475	0.000583	0.000725
in ethanol	0.000355	0.000447	0.000554	0.000682	0.000822	0.00102	0.00122	0.00147	0.00176
in isopropanol	1.9e-05	3e-05	4.2e-05	6.3e-05	8.8e-05	0.000127	0.000175	0.000244	0.000334
in methanol	0.00239	0.00269	0.00302	0.00339	0.00379	0.00423	0.00472	0.00525	0.00583
in n-propanol	6.1e-05	8.2e-05	0.000113	0.000156	0.000209	0.000278	0.000367	0.000477	0.000621
in water	0.000838	0.000915	0.000999	0.00109	0.00119	0.00129	0.0014	0.00153	0.00166

Reference: BigSolDB 2.1
